Data taken from patent US7199267B1, “Recognition of oligiosaccaride molecular targets by polycationic small molecule inhibitors and treatment of immunological disorders and infectious diseases” (MediQuest Therapeutics, Inc., priority 2005, dated 2007).

How the values were obtained:
[1] = BODIPY-TR-cadaverine (BC) fluorescence displacement assay for LPS binding affinity; conditions: purified re-synthesized leads; half-maximal effective displacement of probe; 50 mM Tris buffer, pH 7.4; read-out: Binding affinity (BC displacement) ED50 value
Source text: Quantitative Estimation of LPS Binding Affinity. The relative binding affinities of the entire library of analogs with a recently-described high-throughput fluorescence based displacement assay, is examined using BODIPY-TR cadaverine (BC).^81;82 Results are reported as half-maximal effective displacement of probe (ED50). In all experiments, Polymyxin B (PMB), a decapeptide antibiotic, known to bind and neutralize LPS,^83–86 is used as a reference compound.
Rapid-throughput Fluorescence Displacement Assay for quantifying binding affinities to LPS. The BODIPY-TR-cadaverine (BC; (5-(((4-(4,4-difluoro-5-(2-thienyl)-4-bora-3a,4a-diaza-s-indacene-3-yl) phenoxy)acetyl)amino)pentylamine, hydrochloride; obtained from Molecular probes, Inc., Eugene, Oreg.) displacement assay to quantify the affinities of binding of compounds to LPS has been described in detail recently.^81 This assay is performed in a rapid-throughput format as follows: the first column (16 wells) of a Corning Nonbinding Surface 384-well flat-bottom black fluorescence microplate contain 15 test compounds plus polymyxin B, all at 5 mM in DMSO, and are serially diluted two-fold in 50 mM Tris buffer, pH 7.4, across the remaining 23 columns, achieving a final dilution of 0.596 nM in a volume of 40 μl. Polymyxin B (PMB), a peptide antibiotic known to bind and neutralize LPS^95 serve as the positive control and reference compound for every plate, enabling the quantitative assessment of repeatability and reproducibility (CV and Z′ factors) for the assay. Automated liquid handling is performed on a Precision 2000 automated microplate pipetting system, programmed using the Precision Power software, Bio-Tek Instruments Inc., VT, USA.

[2] = test system: murine macrophage J774A.1 cells; test: Nitric oxide assay (Griess): inhibition of LPS-induced NO production; assay type: cell-based; conditions: purified re-synthesized leads; 10 ng/ml LPS stimulation, 16 h; read-out: NO inhibition in murine J774 cells IC50 value
Method: Assessment of neutralization of LPS toxicity: NO inhibition activity. Murine monocytes (J774.A1 cells) produce measurable quantities of NO upon exposure to LPS and provide a high-throughput and validated model for the rapid and quantitative assessment of compounds in neutralizing the toxicity of LPS.^81;82;94 Compounds that neutralize LPS inhibit NO production in a dose-dependent manner from which 50% inhibitory concentrations (IC50) were determined (FIG. 4). The analogs determined to have the highest affinity in the BC-binding assay are then assayed in this NO inhibition assay (Table 1). Results in this assay parallel those in the binding assay (FIG. 5). Nitric Oxide Assay. Nitric oxide production is measured as total nitrite in murine macrophage J774A.1 cells using the Griess assay^96 as described previously.^94 J774A.1 cells are plated at ˜10^5/ml in a volume of 40 μl/well, in 384-well, flat-bottomed, cell culture treated microtiter plates and subsequently stimulated with 10 ng/ml lipopolysaccharide (LPS). Concurrent to LPS stimulation, serially diluted concentrations of test compounds are added to the cell medium and left to incubate overnight for 16 h. Polymyxin B is used as reference compound in each plate. Positive- (LPS stimulation only) and negative-controls (J774A. 1 medium only) are included in each experiment. Nitrite concentrations are measured by adding 40 μl of supernatant to equal volumes of Griess reagents ([…]; 0.1% NED solution in ddH2O and 1% sulfanilamide, 5% phosphoric acid solution in ddH2O) and incubating for 15 minutes at room temperature in the dark. Absorbance at 535 nm is measured using a Molecular Devices Spectramax M2 multifunction plate reader (Sunnyvale, Calif.). Nitrite concentrations are interpolated from standard curves obtained from serially diluted sodium nitrite standards.

Row | Compound | EC50 [1] [µM] | IC50 [2] [µM]
1 | CCCCCCCCCCCCCCCCCCNCC(=O)NCC(=O)NCCCN [compound 1137] | 6.61 | 7.94
2 | CCCCCCCCCCCCCCCCCCNCCC(=O)NCC(=O)NCCOCCN [compound 1052] | 14.2 | 1.84
3 | CCCCCCCCCCCCCCCCCCNCCC(=O)NC(Cc1ccccc1)C(=O)NCCCN (centres unmarked) [compound 1097] | 4.13 | 8.7
4 | CCCCCCCCCCCCCCCCCCNCCC(=O)NC(Cc1cnc[nH]1)C(=O)NCCCN (centres unmarked) [compound 1127] | 6.86 | 8.06
5 | CCCCCCCCCCCCCCCCCCNCCCC(=O)NC(Cc1ccccc1)C(=O)NCCOCCN (centres unmarked) [compound 1012] | 7.68 | 3.78
6 | CCCCCCCCCCCCCCCCCCNCCCC(=O)NCC(=O)NCCCN [compound 1147] | 6.14 | 6.57
7 | CCCCCCCCCCCCCCCCCCNCCC(=O)NCC(=O)NCCCN [compound 1142] | 2420 | 5.26
8 | CCCCCCCCCCCCCCCCCCNCCCC(=O)NC(Cc1ccccc1)C(=O)NCCCN (centres unmarked) [compound 1102] | 5.75 | 3.42
9 | CCCCCCCCCCCCCCCCCCNCC(=O)NC(Cc1ccccc1)C(=O)NCCCN (centres unmarked) [compound 1092] | 8.8 | 6.74
10 | CCCCCCCCCCCCCCCCCCNCC(=O)NC(Cc1cnc[nH]1)C(=O)NCCOCCN (centres unmarked) [compound 1032] | 13.1 | 1.64
11 | CCCCCCCCCCCCCCCCCCNCCCC(=O)NC(Cc1ccccc1)C(=O)NCCCCCN (centres unmarked) [compound 1192] | 7.51 | 4.8
12 | CCCCCCCCCCCCCCCCCCNCC(=O)NC(Cc1ccccc1)C(=O)NCCOCCN (centres unmarked) [compound 1002] | 12.4 | 17.6
13 | CCCCCCCCCCCCCCCCCCNCC(=O)NC(Cc1cnc[nH]1)C(=O)NCCCN (centres unmarked) [compound 1122] | 4.87 | 6.9
14 | CCCCCCCCCCCCCCCCCCNCC(=O)NCC(=O)NCCOCCN [compound 1047] | 14 | 11.5
15 | CCCCCCCCCCCCCCCCCCNCCCC(=O)NC(Cc1cnc[nH]1)C(=O)NCCOCCN (centres unmarked) [compound 1042] | 5.38 | 1.86
16 | CCCCCCCCCCCCCCCCCCNCCC(=O)NC(Cc1ccccc1)C(=O)NCCCCCN (centres unmarked) [compound 1187] | 3850 | 4.88
17 | CCCCCCCCCCCCCCCCCCNCCCC(=O)NCC(=O)NCCOCCN [compound 1057] | 10.8 | 3.33
18 | CCCCCCCCCCCCCCCCCCNCCC(=O)NC(Cc1cnc[nH]1)C(=O)NCCOCCN (centres unmarked) [compound 1037] | 3.17 | 1.88
19 | CCCCCCCCCCCCCCCCCCNCCCC(=O)NC(Cc1cnc[nH]1)C(=O)NCCCN (centres unmarked) [compound 1132] | 3.01 | 1.83
20 | CCCCCCCCCCCCCCCCCCNCCC(=O)NC(Cc1ccccc1)C(=O)NCCOCCN (centres unmarked) [compound 1007] | 2.54 | 2.79

Other lines, results leading:

Row | EC50 [1] [µM] | IC50 [2] [µM] | Compound
21 | 9.77 | 3.22 | CCCCCCCCCCCCCCCCCCNCCCC(=O)NCC(=O)NCCCCCN [compound 1237]
22 | 9.16 | 6.54 | CCCCCCCCCCCCCCCCCCNCCC(=O)NCCOCCN [compound 2328]
23 | 7.61 | 2.07 | CCCCCCCCCCCCCCCCCCNCCCC(=O)NCCCCCN [compound 2329]
24 | 6.21 | 4.87 | CCCCCCCCCCCCCCCCCCNCCCC(=O)NCCCN [compound 2324]
25 | 9.92 | 7.49 | CCCCCCCCCCCCCCCCCCNCCC(=O)NCCCN [compound 2323]
26 | 11.2 | 4.61 | CCCCCCCCCCCCCCCCCCNCCC(=O)NCC(=O)NCCCCCN [compound 1232]
27 | 3.8 | 5.56 | CCCCCCCCCCCCCCCCCCNCC(=O)NCCCN [compound 2322]
28 | 5.73 | 5 | CCCCCCCCCCCCCCCCCCNCCCC(=O)NCCOCCN [compound 2330]
29 | 8.74 | 3.96 | CCCCCCCCCCCCCCCCCCNCC(=O)NCCCCCN [compound 2325]
30 | 4.03 | 1.08 | CCCCCCCCCCCCCCCCCCNCCC(=O)NCCCCCN [compound 2327]
31 | 18.7 | 0.9 | CCCCCCCCCCCCCCCCCCNCCCC(=O)NC(Cc1cnc[nH]1)C(=O)NCCCCCN (centres unmarked) [compound 1222]
32 | 12.2 | 9.73 | CCCCCCCCCCCCCCCCCCNCC(=O)NCCOCCN [compound 2326]
33 | 28.2 | 3.27 | CCCCCCCCCCCCCCCCCCNCC(=O)NCC(=O)NCCCCCN [compound 1227]
34 | 12.1 | 2.04 | CCCCCCCCCCCCCCCCCCNCC(=O)NC(Cc1cnc[nH]1)C(=O)NCCCCCN (centres unmarked) [compound 1212]
